≈ marks a conversion by molar mass, not a printed value. Where “and” joins values, the source holds several entries; their conditions need not be identical. Equal values may be shown once.
Experiments:
Assay type in all cases: binding
TTX monoclonal antibody [1] = tested on: TTX monoclonal antibody
TTX monoclonal antibody [2] = tested on: TTX monoclonal antibody; remark: listed apart in the source
TTX monoclonal antibody [3] = tested on: TTX monoclonal antibody; remark: listed apart in the source

Row | Compound | FLT (a.u.) (TTX monoclonal antibody [1]) | competitive inhibition rate (1-T/T0) (TTX monoclonal antibody [2]) | fluorescence signal value of detection line (TTX monoclonal antibody [2]) [a.u.] | IC50 (TTX monoclonal antibody [3]) [ng/mL]
1 | C/C(=C/C=C/[C@@H](C)C(=O)O)[C@H]1CN[C@H](C(=O)O)[C@H]1CC(=O)O [DA] | 503422 a.u. and 504729 a.u. and 501687 a.u. and 506770 a.u. and 503922 a.u. and 508625 a.u. | – | – | –
2 | NC1=N[C@H](O)[C@H]2[C@H]3O[C@]4(O)O[C@@H]([C@@H](O)[C@@]2(N1)[C@@H]4O)[C@]3(O)CO [TTX, Tetrodotoxin] | – | 0.3 | 343000 | 1.713 (≈ 5.37 nM)
3 | MC-LR | 452864 a.u. and 478692 a.u. and 475179 a.u. and 469265 a.u. and 465390 a.u. and 480375 a.u. | – | – | –
